From patent US20210387990A1, “METHOD FOR PRODUCING DIMETHOXYBENZENE COMPOUND” (TAIHO PHARMACEUTICAL CO., LTD., priority 2018, published 2021) come the findings set out here.

This series can be described thus: solubility in solvents. Conditions: in water, highly water-soluble organic solvents, and highly fat-soluble organic solvents; free form. The series is classed as physicochemical.

Consider `COc1cc(C#Cc2nn([C@H]3CCNC3)c3ncnc(N)c23)cc(OC)c1` [compound B, (S)-3-((3,5-dimethoxyphenyl)ethynyl)-1-(pyrrolidin-3-yl)-1H-pyrazolo[3,4-d]pyrimidin-4-amine], for which the solubility result is reported as “easily soluble”.
